In article PMC4704150 (Antimicrobial Agents and Chemotherapy, 2015):
Read-outs that look alike come from different tables or passages of the source. Marks after values point to notes of the source that are not given here.

Experiments:
[1] = Drug-drug interaction study, 2D regimen with omeprazole; format: in vivo, human healthy volunteers; settings: for change in the Cmax and AUC values upon coadministration: 2D regimen + omeprazole vs 2D regimen alone
[2] = tested on: breast cancer resistance protein (BCRP); settings: in vitro, at clinically relevant concentrations; cited from earlier work
[3] = cited from earlier work
[4] = Drug-drug interaction study, 2D regimen with rosuvastatin; format: in vivo, human healthy volunteers; settings: for increase in AUC upon coadministration / increase in Cmax upon coadministration: rosuvastatin + 2D regimen vs alone
[5] = Drug-drug interaction study, 2D regimen with duloxetine, plasma pharmacokinetics; format: in vivo, human healthy volunteers; settings: for change in the Cmax and AUC values upon coadministration: duloxetine + 2D regimen vs alone
[6] = Drug-drug interaction study, 2D regimen with ketoconazole; format: in vivo, human healthy volunteers; settings: ketoconazole + 2D regimen vs alone
[7] = Drug-drug interaction study, 2D regimen with digoxin; format: in vivo, human healthy volunteers; settings: for change in the Cmax and AUC values upon coadministration: 2D regimen + digoxin vs 2D regimen alone
[8] = tested on: HCV subtypes 1a, 1b, 2a, 3a, 4a, and 6a; settings: cited from earlier work
[9] = Drug-drug interaction study, 2D regimen with pravastatin; format: in vivo, human healthy volunteers; settings: for increase in AUC upon coadministration / increase in Cmax upon coadministration: pravastatin + 2D regimen vs alone
[10] = format: in vivo, human healthy volunteers; settings: coadministration vs alone; except in the ketoconazole study
[11] = in vitro; cited from earlier work
[12] = Drug-drug interaction study, 2D regimen with warfarin; format: in vivo, human healthy volunteers; settings: for change in the Cmax and AUC values upon coadministration: warfarin + 2D regimen vs alone; for Cmax, Coadministration / AUC (AUC∞), Alone: warfarin study, geometric mean (%CV); for Cmax, Coadministration: warfarin + 2D regimen; for AUC (AUC∞), Alone: warfarin without 2D regimen
[13] = tested on: organic anion-transporting polypeptide 1B1/B3 (OATP1B1/B3); settings: in vitro, at clinically relevant concentrations; cited from earlier work
P-glycoprotein (P-gp) = settings: in vitro, at clinically relevant concentrations; cited from earlier work
[14] = human, in vivo
[15] = format: in vivo, human healthy volunteers; settings: for change in the Cmax and AUC values in the presence of the 2D regimen: except escitalopram AUC
[16] = tested on: genotypes other than genotype 1; settings: cited from earlier work
[17] = omeprazole + 2D regimen vs omeprazole alone
[18] = 2D regimen + rosuvastatin vs 2D regimen alone
[19] = escitalopram + 2D regimen vs escitalopram alone
[20] = escitalopram study, escitalopram + 2D regimen, geometric mean (%CV)
[21] = digoxin + 2D regimen vs digoxin alone

## COc1ccc2[nH]c([S+]([O-])Cc3ncc(C)c(OC)c3C)nc2c1 (stereo not drawn) [Omeprazole, omeprazole]
[1]; human, plasma, 40 mg
  AUC(0-t): 1170 ng·h/mL
[1]; [17]
  decrease in exposures upon coadministration: approximately 50%
  reduction in AUC in the presence of the 2D regimen: 54%
  reduction in Cmax in the presence of the 2D regimen: 52%

## Cc1cnc(C(=O)N[C@H]2CCCCC/C=C\[C@@H]3C[C@@]3(C(=O)NS(=O)(=O)C3CC3)NC(=O)[C@@H]3C[C@@H](Oc4nc5ccccc5c5ccccc45)CN3C2=O)cn1 [Paritaprevir, paritaprevir]
[2]
  BCRP inhibition: potential inhibitors
[3]; paritaprevir 200 mg
  exposures higher than those observed with the 150-mg paritaprevir dose: approximately 93%
[3]; paritaprevir 250 mg
  exposures higher than those observed with the 150-mg paritaprevir dose: ~250%
[4]
  increase in AUC upon coadministration: 22%
  increase in Cmax upon coadministration: 40%
[5]
  change in the Cmax and AUC values upon coadministration: ≤ 10%
[6]
  increase in AUC upon coadministration: 116%
  increase in Cmax upon coadministration: 72%
  mean t1/2, fold longer upon coadministration: more than 2 fold
[6]; Cmax and AUC
  increase in exposures upon coadministration: up to 116%
[7]
  change in the Cmax and AUC values upon coadministration: ≤ 15%
[8]
  in vitro antiviral activity: show in vitro antiviral activity
[9]
  increase in AUC upon coadministration: 33%
  increase in Cmax upon coadministration: 44%
[10]
  Tmax and t1/2 (where calculated): not affected in a meaningful way
[11]
  metabolic pathway: primarily metabolized by cytochrome P450 3A (CYP3A)
[12]
  change in the Cmax and AUC values upon coadministration: ≤ 15%
[1]
  change in the Cmax and AUC values upon coadministration: ≤ 7%
[13]
  OATP1B1/B3 inhibition: inhibitor
P-glycoprotein (P-gp)
  P-gp inhibition: potential inhibitors

## C=CCN1CC[C@]23c4c5ccc(O)c4O[C@H]2C(=O)CC[C@@]3(O)[C@H]1C5 [Naloxone, naloxone]
[14]
  AUC (AUCtau, AUC24), dose normalized, Alone: 139 (53)^d^,^j pg · h/ml/mg
  AUC (AUCtau, AUC24), dose normalized, Coadministration: 154 (76)^d^,^j pg · h/ml/mg
  Cmax, dose normalized, Alone: 59.0 (44)^i pg/ml/mg
  Cmax, dose normalized, Coadministration: 58.1 (61)^i pg/ml/mg
  change in the Cmax and AUC values upon coadministration: ≤ 11%

## COC(=O)N[C@H](C(=O)N1CCC[C@H]1C(=O)Nc1ccc([C@@H]2CC[C@@H](c3ccc(NC(=O)[C@@H]4CCCN4C(=O)[C@@H](NC(=O)OC)C(C)C)cc3)N2c2ccc(C(C)(C)C)cc2)cc1)C(C)C [Ombitasvir, ombitasvir]
[4]; [18]
  change in Cmax and AUC values upon coadministration: ≤ 12%
  lower Cmax upon coadministration: 12%
[5]
  change in the Cmax and AUC values upon coadministration: ≤ 10%
[6]
  decrease in Cmax upon coadministration: 2%
  increase in AUC upon coadministration: 26%
[7]
  change in the Cmax and AUC values upon coadministration: ≤ 15%
[8]
  in vitro antiviral activity: show in vitro antiviral activity
[9]; 2D regimen + pravastatin vs 2D regimen alone
  decrease in Cmax or AUC value upon coadministration: ≤ 6%
[10]
  Tmax and t1/2 (where calculated): not affected in a meaningful way
[11]
  metabolic pathway: predominantly metabolized by amide hydrolysis followed by oxidative metabolism
[12]
  change in the Cmax and AUC values upon coadministration: ≤ 15%
[1]
  change in the Cmax and AUC values upon coadministration: ≤ 7%

## CC(C)c1nc(CN(C)C(=O)N[C@H](C(=O)N[C@@H](Cc2ccccc2)C[C@H](O)[C@H](Cc2ccccc2)NC(=O)OCc2cncs2)C(C)C)cs1 [Ritonavir, ritonavir]
[4]; [18]
  change in Cmax and AUC values upon coadministration: ≤ 12%
[5]
  change in the Cmax and AUC values upon coadministration: ≤ 10%
[7]
  change in the Cmax and AUC values upon coadministration: ≤ 15%
[9]
  increase in AUC upon coadministration: 37%
  increase in Cmax upon coadministration: 37%
[10]
  Tmax and t1/2 (where calculated): not affected in a meaningful way
[11]
  metabolic pathway: primarily metabolized by cytochrome P450 3A (CYP3A)
[12]
  change in the Cmax and AUC values upon coadministration: ≤ 15%
[1]
  change in the Cmax and AUC values upon coadministration: ≤ 7%

## CNCCC[C@@]1(c2ccc(F)cc2)OCc2cc(C#N)ccc21 [S-Desmethylcitalopram, S-desmethylcitalopram]
[15]; [19]
  change in the Cmax and AUC values in the presence of the 2D regimen: ≤ 20%
[15]; [20]
  AUC (AUC∞), Coadministration: 167 (11)^b ng · h/ml
  Cmax, Coadministration: 1.77 (26) ng/ml
[15]; escitalopram study, escitalopram without 2D regimen, geometric mean (%CV)
  AUC (AUC∞), Alone: 153 (16)^b ng · h/ml

## CNCC[C@H](Oc1cccc2ccccc12)c1cccs1 [Duloxetine, duloxetine]
[5]
  change in the Cmax and AUC values upon coadministration: ≤ 20%
[5]; human, plasma, oral, 60 mg
  AUC(0-inf): 648 ng·h/mL

## CC(=O)C[C@@H](c1ccccc1)c1c(O)c2ccccc2oc1=O [S-Warfarin, S-warfarin]
[12]
  change in the Cmax and AUC values upon coadministration: ≤ 15%
  Cmax, Coadministration: 240 (14) ng/ml
  AUC (AUC∞), Alone: 13,000 (25)^b ng · h/ml

## CC(C)c1nc(N(C)S(C)(=O)=O)nc(-c2ccc(F)cc2)c1/C=C/[C@@H](O)C[C@@H](O)CC(=O)O [Rosuvastatin, rosuvastatin]
[4]
  increase in AUC upon coadministration: 33%
  increase in Cmax upon coadministration: 161%
[4]; rosuvastatin + 2D regimen vs rosuvastatin alone
  increase in exposures upon coadministration: ≤ 161%

## CN(C)CCC[C@@]1(c2ccc(F)cc2)OCc2cc(C#N)ccc21 [Escitalopram, escitalopram]
[15]; [19]
  decrease in AUC in the presence of the 2D regimen: 25%
  change in the Cmax and AUC values in the presence of the 2D regimen: ≤ 20%
[15]; human, plasma, 10 mg
  AUC(0-inf): 262 ng·h/mL

## COc1c(-c2ccc3cc(NS(C)(=O)=O)ccc3c2)cc(-n2ccc(=O)[nH]c2=O)cc1C(C)(C)C [Dasabuvir, dasabuvir]
[16]
  activity against HCV genotypes other than genotype 1: not active

## C[C@H]1O[C@@H](O[C@H]2[C@@H](O)C[C@H](O[C@H]3[C@@H](O)C[C@H](O[C@H]4CC[C@@]5(C)[C@H](CC[C@@H]6[C@@H]5C[C@@H](O)[C@]5(C)[C@@H](C7=CC(=O)OC7)CC[C@]65O)C4)O[C@@H]3C)O[C@@H]2C)C[C@H](O)[C@@H]1O [Digoxin, digoxin]
[7]; [21]
  increase in AUC upon coadministration: 36%
  increase in C24 upon coadministration: 24%
  increase in Cmax upon coadministration: 58%
[7]; digoxin + 2D regimen vs digoxin alone, urine
  ratio of fraction excreted (fraction of unchanged drug eliminated in the urine): 1.01
[7]; human, plasma, 0.5 mg
  AUC(0-inf): 27.8 ng·h/mL

## CC(=O)C[C@H](c1ccccc1)c1c(O)c2ccccc2oc1=O [R-Warfarin, R-warfarin]
[12]
  Cmax, Coadministration: 255 (16) ng/ml
  AUC (AUC∞), Alone: 19,900 (21)^b ng · h/ml

## CC[C@H](C)C(=O)O[C@H]1C[C@H](O)C=C2C=C[C@H](C)[C@H](CC[C@@H](O)C[C@@H](O)CC(=O)O)[C@H]21 [Pravastatin, pravastatin]
[9]
  increase in AUC upon coadministration: 76%
  increase in Cmax upon coadministration: 43%
